Patent publication US12600726B2, “Antagonists of the muscarinic acetylcholine receptor M4” (Vanderbilt University, priority 2017, dated 2026)

Assays:
[1] = biological target: T1, Rat M4 (Rattus norvegicus, UniProt P08485); assay: mAChR M4 cell-based functional calcium flux assay (rat M4/Gqi5/CHO cells); conditions: for Emin (rat M4): % ACh maximum at 30 μM; for IC50: decrease of the response to an EC80 concentration of acetylcholine
T1 construct: expressed in transfected cells; host or cells: CHO-K1 (ATCC), stably expressing M4 and Gqi5
T1 sequence (P08485 1-478): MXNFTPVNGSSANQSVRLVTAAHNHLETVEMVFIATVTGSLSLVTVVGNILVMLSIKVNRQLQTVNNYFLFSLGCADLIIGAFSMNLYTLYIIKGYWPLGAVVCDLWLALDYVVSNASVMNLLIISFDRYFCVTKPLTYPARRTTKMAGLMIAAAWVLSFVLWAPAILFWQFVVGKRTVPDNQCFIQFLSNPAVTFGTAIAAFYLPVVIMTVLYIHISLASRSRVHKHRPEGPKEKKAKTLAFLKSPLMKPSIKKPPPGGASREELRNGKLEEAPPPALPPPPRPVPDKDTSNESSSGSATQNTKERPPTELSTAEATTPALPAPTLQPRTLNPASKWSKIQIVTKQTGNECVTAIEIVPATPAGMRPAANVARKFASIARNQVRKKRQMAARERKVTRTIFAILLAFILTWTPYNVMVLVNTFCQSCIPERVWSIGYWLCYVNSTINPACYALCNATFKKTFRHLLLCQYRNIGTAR
Outline: (§1)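 CHO-K1 cells stably co-expressing M4 of the given species with chimeric Gqi5 were loaded with Fluo-4 AM and read for calcium flux. Compounds (10-point, 1:3 dilutions) were added first, followed by an acetylcholine EC20 at 143 s and an EC80 at 268 s. IC50 reflects the concentration-dependent fall in the EC80 response, fitted with a four-parameter logistic.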

[2] = biological target: T2, Human M4 (Homo sapiens, UniProt P08173); assay: mAChR M4 cell-based functional calcium flux assay (human M4/Gqi5/CHO cells); conditions: for Emin (human M4): % ACh maximum at 30 μM; for IC50: decrease of the response to an EC80 concentration of acetylcholine
T2 construct: expressed in transfected cells; host or cells: CHO-K1 (ATCC), stably expressing M4 and Gqi5
T2 sequence (P08173 1-479): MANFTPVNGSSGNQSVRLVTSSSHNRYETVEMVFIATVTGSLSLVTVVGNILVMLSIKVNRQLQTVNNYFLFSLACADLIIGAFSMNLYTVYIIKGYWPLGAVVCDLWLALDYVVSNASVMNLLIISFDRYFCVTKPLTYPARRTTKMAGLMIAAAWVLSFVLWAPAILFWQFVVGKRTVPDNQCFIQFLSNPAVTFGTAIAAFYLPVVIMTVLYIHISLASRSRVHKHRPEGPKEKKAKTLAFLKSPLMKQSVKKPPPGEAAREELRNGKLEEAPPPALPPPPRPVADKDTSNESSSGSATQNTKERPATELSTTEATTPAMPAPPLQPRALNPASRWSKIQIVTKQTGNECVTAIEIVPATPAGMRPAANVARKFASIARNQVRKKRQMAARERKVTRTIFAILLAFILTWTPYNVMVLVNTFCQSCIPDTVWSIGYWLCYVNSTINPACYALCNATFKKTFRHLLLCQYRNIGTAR
Outline: as §1

**Q.** With `CC(C)(C)CCN1CCC2(CC1)CC2CNc1ccc(-c2ccccc2OC(F)(F)F)nn1` (centres unmarked) [Compound 48, N-[[6-(3,3-dimethylbutyl)-6-azaspiro[2.5]octan-2-yl]methyl]-6-[2-(trifluoromethoxy)phenyl]pyridazin-3-amine] as the compound, how does the “Emin (rat M4)” value [1] read?
**A.** 2.26%

**Q.** And the IC50 [1]?
**A.** 387 nM

**Q.** And the “Emin (human M4)” value [2]?
**A.** 2.63%

**Q.** What about the IC50 [2] of the same compound?
**A.** 64.4 nM

**Q.** Which “Emin (rat M4)” value [1] does the source give for `Fc1ccc(Cl)c(-c2ccc(NC[C@@H]3CC34CCN(CC3CCCCCC3)CC4)nn2)c1` [Compound 109, (R)-6-(2-chloro-5-fluorophenyl)-N-((6-(cycloheptylmethyl)-6-azaspiro[2.5]octan-1-yl)methyl)pyridazin-3-amine] here?
**A.** 3%

**Q.** What about the IC50 [1] of the same compound?
**A.** 92.1 nM

**Q.** And the “Emin (human M4)” value [2]?
**A.** 4%

**Q.** And the IC50 [2]?
**A.** 50.6 nM

**Q.** What does the source list for `CC(C)(C)CCN1CCC2(CC1)CC2CNc1ccc(-c2cc(F)ccc2Cl)nn1` (centres unmarked) [Compound 13, 6-(2-chloro-5-fluoro-phenyl)-N-[[6-(3,3-dimethylbutyl)-6-azaspiro[2.5]octan-2-yl]methyl]pyridazin-3-amine]?
**A.** Emin (rat M4) [1]: 2.82%; IC50 [1]: 117 nM; Emin (human M4) [2]: 2.29%; IC50 [2]: 15.6 nM

**Q.** Which “Emin (rat M4)” value [1] does the source give for `CC(C)(C)CCN1CCC2(CC1)CC2CNc1ccc(-c2ccc3ncccc3c2)nn1` (centres unmarked) [Compound 45, N-[[6-(3,3-dimethylbutyl)-6-azaspiro[2.5]octan-2-yl]methyl]-6-(6-quinolyl)pyridazin-3-amine] here?
**A.** 3.33%

**Q.** And the IC50 [1]?
**A.** 53.9 nM

**Q.** What about the “Emin (human M4)” value [2] of the same compound?
**A.** 2.89%

**Q.** What about the IC50 [2] of the same compound?
**A.** 9.08 nM

**Q.** What does the source list for `CC(=O)Nc1ccc(-c2ccc(NC[C@@H]3CC34CCN(CC3CCCCC3)CC4)nn2)cc1` [Compound 118, N-[4-[6-[[(2R)-6-(cyclohexylmethyl)-6-azaspiro[2.5]octan-2-yl]methylamino]pyridazin-3-yl]phenyl]acetamide]?
**A.** Emin (rat M4) [1]: 5%; IC50 [1]: 16.7 nM; Emin (human M4) [2]: 4%; IC50 [2]: 5.85 nM

**Q.** For `c1cc(N2CCOCC2)nnc1NCC1CC12CCN(CC13CC4CC(CC(C4)C1)C3)CC2` (centres unmarked) [Compound 84, N-[[6-(1-adamantylmethyl)-6-azaspiro[2.5]octan-2-yl]methyl]-6-morpholino-pyridazin-3-amine], which “Emin (rat M4)” value [1] is on record?
**A.** 3%

**Q.** And the IC50 [1]?
**A.** 257 nM

**Q.** And the “Emin (human M4)” value [2]?
**A.** 5%

**Q.** What about the IC50 [2] of the same compound?
**A.** 33.9 nM

**Q.** Which “Emin (rat M4)” value [1] does the source give for `CC(=O)Nc1ccc(-c2ccc(NC[C@@H]3CC34CCN(CC3CCCCCC3)CC4)nn2)cc1` [Compound 119, N-[4-[6-[[(2R)-6-(cycloheptylmethyl)-6-azaspiro[2.5]octan-2-yl]methylamino]pyridazin-3-yl]phenyl]acetamide] here?
**A.** 5%

**Q.** What about the IC50 [1] of the same compound?
**A.** 16.5 nM

**Q.** And the “Emin (human M4)” value [2]?
**A.** 3%

**Q.** And the IC50 [2]?
**A.** 8.18 nM

**Q.** How did the “Emin (rat M4)” value [1] turn out when `CC(=O)Nc1ccc(-c2ccc(NC[C@@H]3CC34CCN(Cc3ncccc3C)CC4)nn2)cc1` [Compound 122, N-[4-[6-[[(2R)-6-[(3-methyl-2-pyridyl)methyl]-6-azaspiro[2.5]octan-2-yl]methylamino]pyridazin-3-yl]phenyl]acetamide] was run?
**A.** 12%

**Q.** And the IC50 [1]?
**A.** 320 nM

**Q.** What about the “Emin (human M4)” value [2] of the same compound?
**A.** 12%

**Q.** And the IC50 [2]?
**A.** 1410 nM

**Q.** With `CC(C)(C)CCN1CCC2(CC1)CC2CNc1ccc(N2CCC(F)(F)C2)nn1` (centres unmarked) [Compound 75, 6-(3,3-difluoropyrrolidin-1-yl)-N-((6-(3,3-dimethylbutyl)-6-azaspiro[2.5]octan-1-yl)methyl)pyridazin-3-amine] as the compound, how does the “Emin (rat M4)” value [1] read?
**A.** 5%

**Q.** What about the IC50 [1] of the same compound?
**A.** 114 nM

**Q.** And the “Emin (human M4)” value [2]?
**A.** 4%

**Q.** And the IC50 [2]?
**A.** 41.2 nM

**Q.** What does the source list for `C1=CC2CC1CC2CN1CCC2(CC1)CC2CNc1ncc(-c2ccccc2)s1` (centres unmarked) [Compound 71, N-[[6-(5-bicyclo[2.2.1]hept-2-enylmethyl)-6-azaspiro[2.5]octan-2-yl]methyl]-5-phenyl-thiazol-2-amine]?
**A.** Emin (rat M4) [1]: 4.72%; IC50 [1]: 833 nM; Emin (human M4) [2]: 4.74%; IC50 [2]: 1270 nM

**Q.** Which “Emin (rat M4)” value [1] does the source give for `CCCN1CCC2(CC1)CC2CNc1ccc(-c2cn(C)nc2C)nn1` (centres unmarked) [Compound 54, 6-(1,3-dimethylpyrazol-4-yl)-N-[(6-propyl-6-azaspiro[2.5]octan-2-yl)methyl]pyridazin-3-amine] here?
**A.** 53.6%

**Q.** What about the IC50 [1] of the same compound?
**A.** 9490 nM

**Q.** And the “Emin (human M4)” value [2]?
**A.** 19.4%

**Q.** What about the IC50 [2] of the same compound?
**A.** 4690 nM
